This note sets out measurements from PubChem BioAssay (NCI).

Among the test systems are BT-549 breast; UACC-62 melanoma; SNB-19 CNS; 786-0 renal; RPMI-8226 leukemia; CCRF-CEM leukemia; MALME-3M melanoma; HOP-92 NSCLC; TK-10 renal; HL-60(TB) leukemia.
Test in all cases: growth of human tumour cells (NCI), 48 h

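Test compounds were applied to cells in 96-well plates for 48 hours at 5 doses. GI50 is the concentration that inhibits growth by half. The concentration for full growth arrest is given as TGI.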

`CCN(CC)C(=O)COc1cc2c(O)c3c(O)c(C)c4c(c13)C(=O)C(C)(OC=CC(OC)C(C)C(OC(C)=O)C(C)C(O)C(C)C(O)C(C)C=CC=C(C)C(=O)N2)O4` (stereo not given): the TGI with BT-549 breast, in the assay with UACC-62 melanoma, in the assay with SNB-19 CNS, in the assay with 786-0 renal, with RPMI-8226 leukemia and in the assay on CCRF-CEM leukemia was > 100 µM each time. The TGI in the assay with MALME-3M melanoma, in the assay on HOP-92 NSCLC and in the assay with TK-10 renal was > 100 µM in each case.

In the case of `C=C1CC[C@@H]2[C@](C)(COC(C)=O)[C@H](OC(C)=O)CC[C@@]2(C)[C@@H]1CC(Nc1ccc(S(=O)(=O)Nc2nccs2)cc1)C1=CCOC1=O` (stereo not given in full), the GI50 with BT-549 breast is 2.43 µM; in the assay with UACC-62 melanoma it was 1760 nM; in the assay on HL-60(TB) leukemia, 3010 nM; with SNB-19 CNS it was 4.36 µM; in the assay with 786-0 renal it was 2550 nM; with RPMI-8226 leukemia, 2490 nM. The GI50 in the assay on CCRF-CEM leukemia was 2280 nM; in the assay with HOP-92 NSCLC, 12400 nM; with TK-10 renal, 9.45 µM. Moreover, the TGI with BT-549 breast is 6.5 µM; in the assay with UACC-62 melanoma, 4.42 µM; in the assay with HL-60(TB) leukemia, 13.3 µM; in the assay on SNB-19 CNS it was 16.1 µM; in the assay with 786-0 renal, 6.74 µM; in the assay on RPMI-8226 leukemia, 7.62 µM. Besides, the TGI was determined as 6.76 µM with CCRF-CEM leukemia, 25.3 µM in the assay with HOP-92 NSCLC and 21.2 µM with TK-10 renal.

As to `CCN(C(=O)CN1CCN(c2cc3c(cc2F)c(=O)c(C(=O)O)cn3CC)CC1)c1nc(-c2ccccc2)cs1`, the GI50 was 0.344 µM in the assay with BT-549 breast; 199 nM in the assay on HL-60(TB) leukemia; 0.451 µM with SNB-19 CNS; 384 nM in the assay with 786-0 renal; 344 nM in the assay on RPMI-8226 leukemia; 427 nM in the assay on CCRF-CEM leukemia. Further, the GI50 was 214 nM in the assay on MALME-3M melanoma, 230 nM in the assay with HOP-92 NSCLC and 0.408 µM with TK-10 renal. Besides, the TGI was > 100 µM in the assay on BT-549 breast; 0.47 µM in the assay with HL-60(TB) leukemia; > 100 µM in the assay on SNB-19 CNS; > 100 µM in the assay with 786-0 renal; > 100 µM in the assay on RPMI-8226 leukemia; > 100 µM in the assay on CCRF-CEM leukemia. For the same compound, the TGI in the assay with MALME-3M melanoma was 0.66 µM; in the assay with HOP-92 NSCLC, 0.585 µM; in the assay on TK-10 renal, > 100 µM.

In the case of `CCOC1OC(=O)[C@H]2[C@@H]1[C@@H]1CC[C@H]2O1` (stereo not given in full), the GI50 in the assay on BT-549 breast was > 100 µM; in the assay with UACC-62 melanoma it was > 100000 nM; in the assay with HL-60(TB) leukemia, > 100000 nM; in the assay with SNB-19 CNS it was > 100 µM; with 786-0 renal, > 100000 nM; in the assay on RPMI-8226 leukemia it was > 29300 nM. Besides, the GI50 was > 100000 nM in the assay on CCRF-CEM leukemia, > 100000 nM in the assay on HOP-92 NSCLC and > 100 µM in the assay with TK-10 renal. Also, the TGI in the assay with BT-549 breast, with UACC-62 melanoma, in the assay with HL-60(TB) leukemia, in the assay on SNB-19 CNS, with 786-0 renal and with RPMI-8226 leukemia was > 100 µM each time. In addition, the TGI with CCRF-CEM leukemia, in the assay with HOP-92 NSCLC and in the assay on TK-10 renal was > 100 µM each time.

On to `CC1=C(C(=O)Nc2ccc(F)c(Cl)c2)C(c2ccccc2O)NC(=O)N1` (stereo not given), for which the GI50 with BT-549 breast is 71.5 µM; in the assay with UACC-62 melanoma it was 49000 nM; in the assay with HL-60(TB) leukemia, 59600 nM; in the assay on SNB-19 CNS, > 100 µM; in the assay on 786-0 renal, > 100000 nM; in the assay on RPMI-8226 leukemia it was 46100 nM. The GI50 in the assay on CCRF-CEM leukemia is 59900 nM; in the assay on HOP-92 NSCLC, 81600 nM; in the assay on TK-10 renal, 32.4 µM. Also, the TGI with BT-549 breast, with UACC-62 melanoma, with HL-60(TB) leukemia, in the assay on SNB-19 CNS, in the assay on 786-0 renal and in the assay on RPMI-8226 leukemia was > 100 µM each time. The TGI in the assay with CCRF-CEM leukemia was > 100 µM; with HOP-92 NSCLC it was > 100 µM; with TK-10 renal, 67.9 µM.

As for `C=C1C(=O)O[C@H]2[C@H]1CC/C(CNC(=O)/C=C/c1ccccc1)=C\CC[C@@]1(C)O[C@@H]21`, the GI50 in the assay on BT-549 breast is 1.46 µM; in the assay with UACC-62 melanoma it was 1370 nM; with SNB-19 CNS, 2.39 µM; with 786-0 renal it was 1480 nM; in the assay with RPMI-8226 leukemia, 710 nM; in the assay on CCRF-CEM leukemia, 342 nM. In addition, the GI50 in the assay on MALME-3M melanoma is 1450 nM; in the assay on HOP-92 NSCLC, 1460 nM; in the assay with TK-10 renal, 1.42 µM. For the same compound, the TGI in the assay with BT-549 breast is 3.47 µM; with UACC-62 melanoma, 2.76 µM; in the assay on SNB-19 CNS it was 10.9 µM; with 786-0 renal it was 3.69 µM; in the assay with RPMI-8226 leukemia, 3.9 µM; in the assay on CCRF-CEM leukemia, 1.3 µM. Also, the TGI in the assay with MALME-3M melanoma was found to be 3.29 µM; in the assay with HOP-92 NSCLC, 3.38 µM; in the assay on TK-10 renal, 3.03 µM.

With `COc1cc(C2CC(=O)Nc3c2cc(Br)c2ccccc32)cc(Br)c1OC` (stereo not given), the GI50 in the assay with BT-549 breast was 3.47 µM; in the assay on UACC-62 melanoma, 1640 nM; with HL-60(TB) leukemia, 1060 nM; in the assay on SNB-19 CNS, 2.69 µM; in the assay on 786-0 renal, 1760 nM; in the assay with RPMI-8226 leukemia, 3710 nM. Also, the values for the GI50 in the assay on CCRF-CEM leukemia, with MALME-3M melanoma and in the assay with HOP-92 NSCLC were 2010 nM, 1810 nM and 1000 nM, respectively. The TGI was > 71 µM with BT-549 breast; > 100 µM with UACC-62 melanoma; 3.98 µM with HL-60(TB) leukemia; 9.96 µM with SNB-19 CNS; 3.79 µM with 786-0 renal; > 100 µM in the assay on RPMI-8226 leukemia. Besides, the TGI came out at 21.5 µM in the assay on CCRF-CEM leukemia, 67.2 µM with MALME-3M melanoma and 7.07 µM in the assay on HOP-92 NSCLC.

In the case of `COc1ccc2c(c1)C(=O)c1c-2c(N2CCNCC2)nc2ccccc12`, the GI50 is 3.4 µM in the assay with BT-549 breast; 3550 nM in the assay on UACC-62 melanoma; 1800 nM in the assay on HL-60(TB) leukemia; 5.44 µM in the assay with SNB-19 CNS; 3170 nM with 786-0 renal; 1640 nM in the assay with RPMI-8226 leukemia. Further, the GI50 with CCRF-CEM leukemia is 1360 nM; with MALME-3M melanoma it was 1790 nM; with TK-10 renal it was 8.36 µM. The TGI in the assay with BT-549 breast was 11.4 µM; with UACC-62 melanoma, 12.1 µM; with HL-60(TB) leukemia it was 5.16 µM; in the assay on SNB-19 CNS, 20.7 µM; in the assay on 786-0 renal it was 13.3 µM; in the assay with RPMI-8226 leukemia, 3.39 µM. In addition, the values for the TGI in the assay on CCRF-CEM leukemia, in the assay on MALME-3M melanoma and with TK-10 renal were 2.94 µM, 4.34 µM and 23.6 µM, respectively.
